Values of other authors, collected in US20070178049A1, “Systems and methods for the delivery of corticosteroids having an enhanced pharmacokinetic profile” (Verus Pharmaceuticals, Inc., priority 2005, published 2007).

## CCCC1O[C@@H]2C[C@H]3[C@@H]4CCC5=CC(=O)C=C[C@]5(C)[C@H]4[C@@H](O)C[C@]3(C)[C@]2(C(=O)CO)O1 (stereo partly drawn) [budesonide, (R, S)-11β,16α,17,21-tetrahydroxypregna-1,4-diene-3,20-dione cyclic 16,17-acetal with butyraldehyde]
alcohols
  solubility in alcohols: readily soluble
water
  solubility in water: virtually insoluble
